By IC50 is commonly meant the concentration needed to halve the response being measured. By Ki is commonly meant a dissociation constant, usually derived from enzyme kinetics or from competition with a known ligand.

SMILES strings stand for the structures.

Assay [1] deals with T1, Acetylcholinesterase (Homo sapiens, UniProt P22303). Kind of assay: Inhibition of human recombinant AChE after 5 mins by Ellman's method. (In general: In Ellman's method for cholinesterases, released thiocholine reacts with DTNB.)
T1 sequence (P22303 whole entry): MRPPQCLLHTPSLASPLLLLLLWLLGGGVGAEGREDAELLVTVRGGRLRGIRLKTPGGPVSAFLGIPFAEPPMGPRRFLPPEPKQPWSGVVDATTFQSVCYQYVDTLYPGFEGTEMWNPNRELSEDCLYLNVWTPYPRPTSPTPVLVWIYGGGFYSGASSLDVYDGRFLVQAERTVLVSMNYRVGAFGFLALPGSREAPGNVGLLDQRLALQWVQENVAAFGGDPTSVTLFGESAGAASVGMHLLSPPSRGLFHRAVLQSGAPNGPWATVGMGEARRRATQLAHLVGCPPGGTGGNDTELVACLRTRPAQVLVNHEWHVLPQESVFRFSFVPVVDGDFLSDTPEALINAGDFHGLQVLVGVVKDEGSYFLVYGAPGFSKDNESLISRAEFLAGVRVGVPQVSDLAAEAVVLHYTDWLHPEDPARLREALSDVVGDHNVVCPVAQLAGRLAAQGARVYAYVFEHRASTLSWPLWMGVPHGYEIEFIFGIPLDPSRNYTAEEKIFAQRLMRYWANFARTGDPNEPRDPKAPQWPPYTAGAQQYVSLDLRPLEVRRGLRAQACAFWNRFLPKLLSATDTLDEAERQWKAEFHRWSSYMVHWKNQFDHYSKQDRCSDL
The next assay deals with Cholinesterase (Homo sapiens, UniProt P06276). Kind of assay: Inhibition of human plasmatic BChE after 5 mins by Ellman's method. On the set-up: species or system Plasma.
Chain of Cholinesterase (P06276 whole entry): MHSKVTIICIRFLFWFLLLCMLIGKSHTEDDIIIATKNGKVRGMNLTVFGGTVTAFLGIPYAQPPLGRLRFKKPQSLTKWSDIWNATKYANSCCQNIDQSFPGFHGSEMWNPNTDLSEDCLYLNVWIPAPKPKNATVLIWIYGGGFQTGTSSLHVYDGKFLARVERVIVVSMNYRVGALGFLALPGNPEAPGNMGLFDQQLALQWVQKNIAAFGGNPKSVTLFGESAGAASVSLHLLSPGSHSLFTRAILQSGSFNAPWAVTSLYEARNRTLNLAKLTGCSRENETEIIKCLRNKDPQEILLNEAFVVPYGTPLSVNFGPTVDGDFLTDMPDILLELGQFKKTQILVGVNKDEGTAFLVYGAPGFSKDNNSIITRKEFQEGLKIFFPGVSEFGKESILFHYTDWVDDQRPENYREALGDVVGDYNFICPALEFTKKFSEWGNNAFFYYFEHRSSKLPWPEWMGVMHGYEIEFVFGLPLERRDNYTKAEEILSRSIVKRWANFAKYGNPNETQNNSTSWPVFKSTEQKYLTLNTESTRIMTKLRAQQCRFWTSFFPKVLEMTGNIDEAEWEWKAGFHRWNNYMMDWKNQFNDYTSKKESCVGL
In assay [2] the target is T1, Acetylcholinesterase. Kind of assay: Non competitive inhibition of human recombinant AChE using ATChCl as substrate by Lineweaver-Burk plot analysis.
Assay [3] deals with T1, Acetylcholinesterase. Kind of assay: Inhibition of human recombinant AChE by Lineweaver-Burk plot analysis.

For `c1cc[n+](CCCCCCC[n+]2ccc3ccccc3c2)cc1`, the half-maximal inhibitory concentration (IC50) at Acetylcholinesterase [1] is 0.8 µM; on Cholinesterase it was 1 µM.
Taken in the same sequence, the figures for `c1cc[n+](CCCCCCCC[n+]2ccc3ccccc3c2)cc1` were 0.14 µM and 7.7 µM.
Taken in the same sequence, the figures for `c1cc[n+](CCCCCCCCC[n+]2ccc3ccccc3c2)cc1` were 0.04 µM and 0.35 µM.
As to `c1cc[n+](CCCCCCCCCC[n+]2ccc3ccccc3c2)cc1`, the results for the IC50 at Acetylcholinesterase [1] and at Cholinesterase were 0.02 µM and 0.37 µM, respectively.
On to `c1cc[n+](CCCCCCCCCCC[n+]2ccc3ccccc3c2)cc1`, for which the IC50 on Acetylcholinesterase [1] turned out to be 0.03 µM; against Cholinesterase it was 0.7 µM.
Consider `c1cc[n+](CCCCCCC[n+]2cccc3ccccc32)cc1`, for which the IC50 on Acetylcholinesterase [1] amounted to 0.54 µM; at Cholinesterase it was 2.2 µM.
In the same order, the values of `c1cc[n+](CCCCCCCC[n+]2cccc3ccccc32)cc1` are 0.27 µM and 2 µM.
Regarding `c1cc[n+](CCCCCCCCC[n+]2cccc3ccccc32)cc1`, the IC50 is 0.12 µM on Acetylcholinesterase [1] and 1.7 µM against Cholinesterase.
In the same order, the values of `c1cc[n+](CCCCCCCCCCC[n+]2cccc3ccccc32)cc1` are 0.017 µM and 0.9 µM.
As for `c1cc[n+](CCCCCCCCCCCC[n+]2cccc3ccccc32)cc1`, the Ki on Acetylcholinesterase [2] worked out at 0.01 µM; at Acetylcholinesterase [3], 0.02 µM. The IC50 at Acetylcholinesterase [1] worked out at 0.0047 µM; on Cholinesterase, 0.68 µM.

The record behind these values is ChEMBL document CHEMBL3091342, “Preparation, in vitro evaluation and molecular modelling of pyridinium-quinolinium/isoquinolinium non-symmetrical bisquaternary cholinesterase inhibitors” (Bioorg Med Chem Lett, 2013).
